Source: patent publication US20020137929A1, “1 - (3-heterocyclylphenyl) isothiourea, -isourea, -guanidine and -amidine herbicidal agents” (Intellectual Property Department, BASF Aktiengesellschaft, priority 1998, published 2002)

What was measured:
ABUTH (Velvetleaf) [1] = experiment: Postemergence herbicidal evaluation; type: in vivo, Abutilon theophrasti; details: postemergence
How it was run: (§1)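 Herbicidal effect was judged by eye on a 0–9 scale covering stand, vigor, deformity, size and chlorosis, compared with controls, four to five weeks after seedlings about two weeks old were sprayed (40 psi, ~0.0156–0.500 kg/ha).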

[2] = system: IPOHE (Morningglory, Ivyleaf); experiment: Postemergence herbicidal evaluation; type: in vivo, Ipomoea hederacea; details: postemergence
How it was run: as §1

SETVI (Foxtail, Green) = experiment: Postemergence herbicidal evaluation; type: in vivo, Setaria viridis; details: postemergence
How it was run: as §1

[3] = system: GLXMAW (Soybean, Williams); experiment: Postemergence herbicidal evaluation; type: in vivo, Glycine max, (L.) Merr. cv Williams; details: postemergence
How it was run: as §1

ZEAMX (Corn, Field) = experiment: Postemergence herbicidal evaluation; type: in vivo, Zea mays; details: postemergence
How it was run: as §1

ABUTH (Velvetleaf) [4] = experiment: Preemergence herbicidal evaluation; type: in vivo, Abutilon theophrasti; details: rated 4-5 weeks after treatment
How it was run: (§2)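 In this greenhouse assay, monocot and dicot seeds are planted in soil and treated prior to emergence with an aqueous acetone spray (about 0.0156-0.500 kg/ha). Plants are assessed visually against control on a 0-9 scale after 4-5 weeks.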

AMBEL (Ragweed, Common) = experiment: Preemergence herbicidal evaluation; type: in vivo, Ambrosia artemisifolia; details: rated 4-5 weeks after treatment
How it was run: as §2

CASOB (Sicklepod) = experiment: Preemergence herbicidal evaluation; type: in vivo, Cassia obtusifolia; details: rated 4-5 weeks after treatment
How it was run: as §2

[5] = system: IPOHE (Morningglory, Ivyleaf); experiment: Preemergence herbicidal evaluation; type: in vivo, Ipomoea hederacea; details: rated 4-5 weeks after treatment
How it was run: as §2

ECHCG (Barnyardgrass) = experiment: Preemergence herbicidal evaluation; type: in vivo, Echinochloa crus-galli; details: rated 4-5 weeks after treatment
How it was run: as §2

[6] = system: ECHORC (Watergrass (Calif.)); experiment: Preemergence weed control under flooded paddy conditions; type: in vivo, Echinochloa oryzoides; details: rated 3-4 weeks after treatment
How it was run: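 Seeds or propagules sown in silt loam kept flooded 1.5-3 cm; compounds in 50/50 acetone/water pipetted into flood water at about 0.0313 to 0.500 kg/ha. Greenhouse; visual 0-9 rating versus untreated control 3-4 weeks after treatment.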

CYPSE (Flatsedge) = experiment: as above; type: in vivo, Cyperus serotinus; details: rated 3-4 weeks after treatment
How it was run: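 First, seeds or propagules go into the top 0.5 cm of silt loam; next, water is held 1.5 to 3 cm over the soil; then compound (50/50 acetone/water) is pipetted into it at about 0.0313 to 0.500 kg/ha; finally plants are rated visually 0-9 after three to four weeks.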

## CCOC(=O)CN1C(=O)C(C(=O)OC(C)(C)C)SC1=Nc1cc(-n2c(=O)cc(C(F)(F)F)n(C)c2=O)c(F)cc1Cl (stereo not drawn) [Compound 167, 5-Carboxy-2-{{2-chloro-5-[3,6-dihydro-3-methyl-2,6-dioxo-4-(trifluoromethyl)-1(2H)-pyrimidinyl]-4-fluorophenyl}imino}-4-oxo-3-thiazolidineacetic acid, 5-tert-butyl ethyl ester]
ABUTH (Velvetleaf) [1]; rate 0.0156 kg/ha
  Herbicidal rating ABUTH: 9.0
ABUTH (Velvetleaf) [1]; rate 0.0313 kg/ha
  Herbicidal rating ABUTH: 9.0
ABUTH (Velvetleaf) [1]; rate 0.0625 kg/ha
  Herbicidal rating ABUTH: 9.0
ABUTH (Velvetleaf) [1]; rate 0.1250 kg/ha
  Herbicidal rating ABUTH: 9.0
[2]; rate 0.0156 kg/ha
  Herbicidal rating IPOHE: 9.0
[2]; rate 0.0313 kg/ha
  Herbicidal rating IPOHE: 9.0
[2]; rate 0.0625 kg/ha
  Herbicidal rating IPOHE: 9.0
[2]; rate 0.1250 kg/ha
  Herbicidal rating IPOHE: 9.0
SETVI (Foxtail, Green); rate 0.0156 kg/ha
  Herbicidal rating SETVI: 2.0
SETVI (Foxtail, Green); rate 0.0313 kg/ha
  Herbicidal rating SETVI: 4.0
SETVI (Foxtail, Green); rate 0.0625 kg/ha
  Herbicidal rating SETVI: 9.0
SETVI (Foxtail, Green); rate 0.1250 kg/ha
  Herbicidal rating SETVI: 9.0
[3]; rate 0.0156 kg/ha
  Herbicidal rating GLXMAW: 5.0
[3]; rate 0.0313 kg/ha
  Herbicidal rating GLXMAW: 6.0
[3]; rate 0.0625 kg/ha
  Herbicidal rating GLXMAW: 6.5
[3]; rate 0.1250 kg/ha
  Herbicidal rating GLXMAW: 6.5
ZEAMX (Corn, Field); rate 0.0156 kg/ha
  Herbicidal rating ZEAMX: 4.5
ZEAMX (Corn, Field); rate 0.0313 kg/ha
  Herbicidal rating ZEAMX: 5.5
ZEAMX (Corn, Field); rate 0.0625 kg/ha
  Herbicidal rating ZEAMX: 5.5
ZEAMX (Corn, Field); rate 0.1250 kg/ha
  Herbicidal rating ZEAMX: 5.5
ABUTH (Velvetleaf) [4]; 0.0313 kg/ha
  Preemergence herbicidal rating ABUTH: 0.0
ABUTH (Velvetleaf) [4]; 0.0625 kg/ha
  Preemergence herbicidal rating ABUTH: 9.0
ABUTH (Velvetleaf) [4]; 0.1250 kg/ha
  Preemergence herbicidal rating ABUTH: 9.0
ABUTH (Velvetleaf) [4]; 0.2500 kg/ha
  Preemergence herbicidal rating ABUTH: 9.0
ABUTH (Velvetleaf) [4]; 0.5000 kg/ha
  Preemergence herbicidal rating ABUTH: 9.0
AMBEL (Ragweed, Common); 0.0156 kg/ha
  Preemergence herbicidal rating AMBEL: 1.0
AMBEL (Ragweed, Common); 0.0313 kg/ha
  Preemergence herbicidal rating AMBEL: 0.0
AMBEL (Ragweed, Common); 0.0625 kg/ha
  Preemergence herbicidal rating AMBEL: 7.0
AMBEL (Ragweed, Common); 0.1250 kg/ha
  Preemergence herbicidal rating AMBEL: 6.0
AMBEL (Ragweed, Common); 0.2500 kg/ha
  Preemergence herbicidal rating AMBEL: 7.0
AMBEL (Ragweed, Common); 0.5000 kg/ha
  Preemergence herbicidal rating AMBEL: 8.0
CASOB (Sicklepod); 0.0156 kg/ha
  Preemergence herbicidal rating CASOB: 0.0
CASOB (Sicklepod); 0.0313 kg/ha
  Preemergence herbicidal rating CASOB: 0.0
CASOB (Sicklepod); 0.0625 kg/ha
  Preemergence herbicidal rating CASOB: 1.0
CASOB (Sicklepod); 0.1250 kg/ha
  Preemergence herbicidal rating CASOB: 1.0
CASOB (Sicklepod); 0.2500 kg/ha
  Preemergence herbicidal rating CASOB: 4.0
CASOB (Sicklepod); 0.5000 kg/ha
  Preemergence herbicidal rating CASOB: 9.0
[5]; 0.0156 kg/ha
  Preemergence herbicidal rating IPOHE: 0.0
[5]; 0.0313 kg/ha
  Preemergence herbicidal rating IPOHE: 0.0
[5]; 0.0625 kg/ha
  Preemergence herbicidal rating IPOHE: 2.0
[5]; 0.1250 kg/ha
  Preemergence herbicidal rating IPOHE: 3.0
[5]; 0.2500 kg/ha
  Preemergence herbicidal rating IPOHE: 9.0
[5]; 0.5000 kg/ha
  Preemergence herbicidal rating IPOHE: 9.0
ECHCG (Barnyardgrass); 0.0156 kg/ha
  Preemergence herbicidal rating ECHCG: 0.0
ECHCG (Barnyardgrass); 0.0313 kg/ha
  Preemergence herbicidal rating ECHCG: 0.0
ECHCG (Barnyardgrass); 0.0625 kg/ha
  Preemergence herbicidal rating ECHCG: 6.0
ECHCG (Barnyardgrass); 0.1250 kg/ha
  Preemergence herbicidal rating ECHCG: 9.0
ECHCG (Barnyardgrass); 0.2500 kg/ha
  Preemergence herbicidal rating ECHCG: 9.0
ECHCG (Barnyardgrass); 0.5000 kg/ha
  Preemergence herbicidal rating ECHCG: 8.0
[6]; 0.0313 kg/ha
  herbicidal effect rating, ECHORC: 9.0
[6]; 0.0625 kg/ha
  herbicidal effect rating, ECHORC: 9.0
[6]; 0.1250 kg/ha
  herbicidal effect rating, ECHORC: 9.0
[6]; 0.2500 kg/ha
  herbicidal effect rating, ECHORC: 9.0
CYPSE (Flatsedge); 0.0313 kg/ha
  herbicidal effect rating, CYPSE: 0.0
CYPSE (Flatsedge); 0.0625 kg/ha
  herbicidal effect rating, CYPSE: 0.0
CYPSE (Flatsedge); 0.1250 kg/ha
  herbicidal effect rating, CYPSE: 3.0
CYPSE (Flatsedge); 0.2500 kg/ha
  herbicidal effect rating, CYPSE: 5.0
